# According to patent US5759785A, “Method of identifying hormone antagonists and agonists” (Baylor College of Medicine, priority 1995, dated 1998):
# What was measured:
# [1] = target: T1, Human ER (Homo sapiens, UniProt P03372); assay: Electrophoretic mobility shift assay, translated ER binding to an ERE; type: biochemical; conditions: 100 nM ligand; 10 mM MgCl2, 37° C.
# T1 sequence (P03372 1-595): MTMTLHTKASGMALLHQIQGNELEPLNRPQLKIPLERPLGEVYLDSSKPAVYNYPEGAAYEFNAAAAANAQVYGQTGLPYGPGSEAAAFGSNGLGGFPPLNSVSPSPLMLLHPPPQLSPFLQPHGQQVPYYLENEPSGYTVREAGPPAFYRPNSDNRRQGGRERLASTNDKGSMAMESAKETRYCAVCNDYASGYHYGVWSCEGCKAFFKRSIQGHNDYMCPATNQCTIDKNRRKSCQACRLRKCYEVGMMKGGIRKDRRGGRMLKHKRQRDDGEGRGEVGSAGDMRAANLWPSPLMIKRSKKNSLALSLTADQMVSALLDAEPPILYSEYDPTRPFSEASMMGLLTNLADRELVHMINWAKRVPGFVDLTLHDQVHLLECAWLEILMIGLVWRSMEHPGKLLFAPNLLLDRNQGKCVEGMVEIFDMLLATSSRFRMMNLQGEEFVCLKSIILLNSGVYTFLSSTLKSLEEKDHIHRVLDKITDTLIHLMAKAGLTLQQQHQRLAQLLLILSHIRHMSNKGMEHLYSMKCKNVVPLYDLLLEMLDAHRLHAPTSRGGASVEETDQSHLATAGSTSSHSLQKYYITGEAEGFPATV
# Experimental: (§1) EMSAs were carried out as previously described (Bagchi et al., Mol. Cell. Biol., 2:1221, 1988), except that 100 ng (PR) or 1 μg (ER) of Poly(dI-dC)(dI-dC) were used as competitor and 10 mM MgCl2 was used when testing estrogen receptor. 4 μl of unlabeled translation mix were used per 10 μl reaction. Proteins were incubated with ligand at room temperature (PR) or 37° C. (ER) for 10 minutes, followed by the addition of DNA and further incubation for 10 minutes. For the experiment in FIG. 2, all incubations were carried out at 30° C. in the presence of 300 U/ml calf intestinal alkaline phosphatase. All mixing was done by gentle vortexing. DNA-protein complexes were resolved on 4% (w/v) gels.
# [2] = system: ER; conditions: cited from earlier work
# [3] = system: progesterone action; conditions: cited from earlier work
# [4] = system: A-form human PR; assay: Limited proteolytic digestion of translated PR; type: biochemical; conditions: 100 nM ligand; for proteolytic fragment pattern / conformational change of PR: trypsin (Org compounds) or subtilisin (R5020); for protease-resistant PR fragment: chymotrypsin, trypsin or subtilisin digestion
# Experimental: (§2) To 5 μl of hormone-treated (10 minutes at room temperature (PR) or 37° C. (ER)) labeled translation mix, 0.5 μl of protease (diluted in water) was added followed by incubation for 10 minutes. The rate of digestion is dependent on the concentration of enzyme used. ER translation mixes were made 10 mM in MgCl2 before hormone addition. 0.5 μl was removed and mixed with 10 μl of denaturing loading dye, boiled for 5 minutes, and immediately loaded on 1.5 mm thick 0.1% (w/v) sodium dodecyl sulphate-12% (w/v) polyacrylamide gels. Denaturing gel electrophoresis was performed as described in Promega's translation handbook. Following electrophoresis, gels were treated with 30% (v/v) methanol/10% (v/v) acetic acid, then with EN^3 HANCE, and were vacuum dried at 60° C. for 30 minutes, followed by 80° C. for 45 minutes. Autoradiography was performed overnight. Promega's rabbit reticulocyte lysates average a protein concentration of 130 mg/ml; 5 μg of protease per ml of translation mix is therefore roughly equivalent to 60 ng of protease per mg of protein.
# Proteolytic analysis is a powerful method for analyzing conformation changes within proteins. [^35 S]methionine-labeled PR was treated with progesterone, Ru38486 or ethanol, then digested for a short period of time with different amounts of various proteases. Digestion products were analyzed by denaturing gel electrophoresis.
# [5] = system: A-form human PR; assay: Electrophoretic mobility shift assay, in vitro translated PR binding to a PRE; type: biochemical; conditions: 100 nM ligand (progesterone also 10 nM)
# Experimental: as §1
# Hormone-dependent activity of the in vitro synthesized PR was measured, i.e., its ability to bind DNA specifically was examined by electrophoretic mobility shift assay (EMSA) (FIG. 1A). Unlabeled receptors were incubated with a ^32 P-end-labeled oligonucleotide equivalent to a PRE from the tyrosine aminotransferase gene upstream region.
# [6] = target: T2, hPR (Homo sapiens, UniProt P06401); assay: Bandshift analysis of T47D extract hPR with C-262 antibody supershift; type: biochemical; conditions: T47D extracts; 100 nM ligand
# T2 sequence (P06401 1-933): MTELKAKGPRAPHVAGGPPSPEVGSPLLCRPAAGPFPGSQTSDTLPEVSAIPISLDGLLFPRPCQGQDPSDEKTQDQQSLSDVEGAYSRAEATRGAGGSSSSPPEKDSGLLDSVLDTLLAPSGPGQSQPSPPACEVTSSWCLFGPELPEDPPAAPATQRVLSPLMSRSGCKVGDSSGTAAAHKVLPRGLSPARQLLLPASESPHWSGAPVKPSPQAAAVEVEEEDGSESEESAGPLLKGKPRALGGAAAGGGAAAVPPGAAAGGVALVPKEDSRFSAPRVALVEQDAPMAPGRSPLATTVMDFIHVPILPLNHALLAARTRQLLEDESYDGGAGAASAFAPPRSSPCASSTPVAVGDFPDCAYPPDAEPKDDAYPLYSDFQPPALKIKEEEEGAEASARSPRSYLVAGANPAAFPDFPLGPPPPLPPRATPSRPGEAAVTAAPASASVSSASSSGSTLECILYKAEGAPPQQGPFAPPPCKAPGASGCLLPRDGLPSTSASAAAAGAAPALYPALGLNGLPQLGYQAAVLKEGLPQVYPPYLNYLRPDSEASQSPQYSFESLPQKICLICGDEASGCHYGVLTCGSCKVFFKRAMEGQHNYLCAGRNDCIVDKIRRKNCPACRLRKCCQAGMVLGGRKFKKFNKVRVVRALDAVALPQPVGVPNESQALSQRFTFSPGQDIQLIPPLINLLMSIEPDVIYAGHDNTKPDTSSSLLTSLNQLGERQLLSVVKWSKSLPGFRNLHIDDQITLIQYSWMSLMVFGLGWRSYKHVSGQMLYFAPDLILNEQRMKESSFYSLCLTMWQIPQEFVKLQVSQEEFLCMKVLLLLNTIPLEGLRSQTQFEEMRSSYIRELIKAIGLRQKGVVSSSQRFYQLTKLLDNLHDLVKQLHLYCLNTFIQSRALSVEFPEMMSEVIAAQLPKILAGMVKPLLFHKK
# Experimental: In panel (A), T47D extracts were treated in vitro with 100 nM progesterone (P, lanes 2, 5, 8, 11 and 13), RU486 (R, lanes 3, 6 and 9) or with an equal amount (0.01% (v/v)) of ethanol carrier (-, lanes 1, 4, 7, 10, 12 and 14), followed by the addition of N-terminal-binding (AB52, lanes 7 to 9 and 14) or C-terminal-binding (C-262, lanes 4 to 13) anti-hPR monoclonal antibodies, or a control anti-cPR antibody (PR22, lanes 1 to 3). […] Binding to a PRE was assessed by bandshift analysis. The positions of specific DNA-protein complexes and of free probe are indicated. (B) The effect of ligands on C-262 supershifting was tested as in (A), except that extracts were treated with 100 nM Org31376 (OI, lanes 3, 7 and 11), Org31806 (OII, lanes 4, 8 and 12) or progesterone (P, lanes 2, 6 and 10).
# A monoclonal antibody (C-262), which was raised against the C-terminal 14 amino acids of PR was used to determine if there was a difference in the accessibility of the epitope when the receptor was bound to an agonist or an antagonist.
# The epitope recognized by C-262 antibody was the C-terminus of the receptor. A peptide corresponding to the C-terminal 14 amino acid tail was preincubated with the antibody prior to addition to the band-shift reaction.
# [7] = system: retinoic acid receptor (RAR); assay: Trypsin digestion of translated RAR; type: biochemical; conditions: preincubated with 2 μM retinoic acid
# Experimental: as §2
# (§3) The receptors were translated as a polypeptides of predicted molecular weight (FIG. 7A and 7B, lane 1). Trypsin digestion of RAR and TR which had been preincubated with 2 μM retinoic acid and 10^-T MT3 produced a resistant 31 kd fragment, which was not detectable following digestion of carrier-treated receptor (compare lanes 2-6 with lanes 8-12). […]
# [8] = system: thyroxine receptor (TR); assay: Trypsin digestion of translated TR; type: biochemical; conditions: preincubated with 10^-T MT3
# Experimental: as §2, §3
molecule,measurement,setting,value
"CCCCN(C)C(=O)CCCCCCCCCC[C@@H]1Cc2cc(O)ccc2[C@H]2CC[C@]3(C)[C@@H](O)CC[C@H]3[C@H]12 [ICI 164,384]",binding of translated ER to an ERE (EMSA),[1],induces high affinity DNA binding
same,agonistic activity,[2],no detectable agonistic activity
C[C@H]1CC2=CC(=O)CCC2=C2[C@@H]1[C@@H]1CC[C@@]3(CCCO3)[C@@]1(C)C[C@@H]2c1ccc(N(C)C)cc1 [Org 31806],antagonism of progesterone action in vivo,[3],strongly antagonize progesterone action in vivo
same,proteolytic fragment pattern / conformational change of PR,[4],indistinguishable from that induced by Ru38486
same,"binding of translated PR to a PRE (specific DNA-protein complex, EMSA)",[5],induce binding of translated PR to a PRE in vitro
same,recognition (supershift) of ligand-bound hPR-DNA complex by C-262 antibody,[6],resulted in supershifting of PR-DNA complexes
CCC(=O)[C@@]1(C)CC[C@H]2[C@@H]3CCC4=CC(=O)CCC4=C3CC[C@@]21C [R5020],proteolytic fragment pattern / conformational change of PR,[4],R5020 and progesterone induced the same conformational changes
CC#C[C@]1(O)CC[C@H]2[C@@H]3CCC4=CC(=O)CCC4=C3[C@@H](c3ccc(N(C)C)cc3)C[C@@]21C [Ru38486],protease-resistant PR fragment,[4],27 kd
same,"binding of translated PR to a PRE (specific DNA-protein complex, EMSA)",[5],promoted binding to the PRE that was at least as strong as that induced by an equal concentration (100 nM) of progesterone
same,recognition (supershift) of ligand-bound hPR-DNA complex by C-262 antibody,[6],exposed
"C[C@]12CC[C@@H]3c4ccc(O)cc4CC[C@H]3[C@@H]1CC[C@@H]2O [estradiol, 17β-estradiol]","binding of translated PR to a PRE (specific DNA-protein complex, EMSA)",[5],failed to induce a specific complex
CC(=O)[C@H]1CC[C@H]2[C@@H]3CCC4=CC(=O)CC[C@]4(C)[C@H]3CC[C@]12C [progesterone],protease-resistant PR fragment,[4],30 kd
same,"binding of translated PR to a PRE (specific DNA-protein complex, EMSA)",[5],Specific DNA-protein complexes were obtained
same,recognition (supershift) of ligand-bound hPR-DNA complex by C-262 antibody,[6],almost totally prevented recognition of the receptor by C-262 antibody
CC1=C(/C=C/C(C)=C/C=C/C(C)=C/C(=O)O)C(C)(C)CCC1 [retinoic acid],trypsin-resistant RAR fragment,[7],31 kd
thyroxine [T3],trypsin-resistant TR fragment,[8],31 kd
